Results: US8324227B2, “Thieno[2,3-D]-pyrimidin-4(3H)-one compounds with antifungal properties and process thereof” (FDC Limited, priority 2008, dated 2012)
Values after ≈ are worked out from the molar mass of the structure shown.

Key:
Test in all cases: Antifungal susceptibility, MIC by broth macro-dilution method
Conditions in all cases: end points after 48 hours, NI till x = no inhibition up to x
C. albicans (ATCC 24433) = type: cell-based, Candida albicans
Procedure: (§1) In vitro evaluation of antifungal activity was performed by determining the minimum inhibitory concentration (MIC). Anti-fungal susceptibility testing of these anti-fungal compounds was done by broth dilution method using RPMI 1640 medium with MOPS buffer. Known anti-fungal agents like fluconazole and amphotericin-B were used as positive control. End points were determined after 48 hours visually and by using spectrophotometer wherever necessary. Different dilutions were, tried and various sets of experiments performed.

A. niger (ATCC 16404) = type: cell-based, Aspergillus niger
Procedure: as §1

[1] = system: F. proliferatum (ATCC 10052); type: cell-based, Fusarium proliferatum
Procedure: as §1

[2] = RPMI 1640 medium with MOPS buffer

Structure (SMILES): O=c1c2c3c(sc2ncn1CC(O)(Cn1cncn1)c1ccc(F)cc1F)CCC3 (stereo not drawn) [Compound 1-A07, 3-[2-(2,4-Difluorophenyl)-2-hydroxy-3-[1,2,4]-triazol-1-yl-propyl]-3,5,6,7-tetrahydrocyclopenta[4,5]thieno[2,3-d]pyrimidin-4(3H)-one]
- MIC against fungi, C. albicans (ATCC 24433) (C. albicans (ATCC 24433); [2]): 0.25 to 0.5 µg/mL
- MIC against fungi, A. niger (ATCC 16404) (A. niger (ATCC 16404); [2]): NI till 2 μg/ml
- MIC against fungi, F. proliferatum (ATCC 10052) [1, 2]: NI till 2 μg/ml

Structure (SMILES): O=c1c2cc(CCCCOCc3ccccc3)sc2ncn1CC(O)(Cn1cncn1)c1ccc(F)cc1F (stereo not drawn) [Compound 1-A01, 6-(4-Benzyloxybutyl)-3-[2-(2,4-difluorophenyl)-2-hydroxy-3-[1,2,4]triazol-1-ylpropyl]-thieno[2,3-d]pyrimidin-4(3H)-one]
- MIC (C. albicans (ATCC 24433); Candida albicans, ATCC24433, RPMI 1640 medium with MOPS buffer, read-out: MIC against fungi, C. albicans (ATCC 24433)): 0.06 to 0.12 µg/mL (≈ 0.109 to 0.218 µM)
- MIC (A. niger (ATCC 16404); Aspergillus niger, ATCC16404, RPMI 1640 medium with MOPS buffer, read-out: MIC against fungi, A. niger (ATCC 16404)): > 4 µg/mL
- MIC ([1]; Fusarium proliferatum, ATCC10052, RPMI 1640 medium with MOPS buffer, read-out: MIC against fungi, F. proliferatum (ATCC 10052)): > 4 µg/mL
